Test results taken from US20150328245A1, “Agents for Eliminating Tumour-Initiating Cells” (priority 2012, published 2015).

Columns and labels:
[1] = In vivo maximum tolerated dose assay for compound I-1; set-up: species or system nude mice
Method: In vivo maximum tolerated dose (MTD) toxicity assay was carried out to evaluate the highest dose of a pharmaceutical treatment that will produce the desired effect without unacceptable toxicity. The purpose of administering MTD is to determine whether long-term exposure to a compound might lead to unacceptable adverse health effects in a subject, when the level of exposure is not sufficient to cause premature mortality due to short-term toxic effects.
An exemplary procedure for the in vivo maximum tolerated dose toxicity assay follows. A statistically appropriate number of male and female nude mice were injected with a single dose of either 30 mg/kg, 10 mg/kg, 5 mg/kg, and 2.5 mg/kg of a compound I-1 interperitoneally (i.p.) on day zero. The number of mice surviving from each dose group after the first through fourth days was recorded, and the Maximum Tolerated Dose (“MTD”; e.g. the dose at which 100% of the animals survived after 4 days) was determined.

[2] = test system: L929; test: In vitro soft agar colony forming growth assay; format: cell-based; conditions: Mus musculus, L929, 168 h
Method: (§1) The Soft Agar Assay for Colony Formation is considered the most stringent assay for detecting malignant transformation of cells. In this assay the cells are cultured in medium with low percentage of agar.
(§2) An exemplary procedure for the assay follows.

[3] = test system: MDAMB231; test: In vitro soft agar colony forming growth assay; format: cell-based; conditions: Homo sapiens, MDA-MB-231, 168 h
Method: as §1, §2

[4] = test system: HeLa; test: In vitro soft agar colony forming growth assay; format: cell-based; conditions: Homo sapiens, 168 h
Method: as §1, §2

[5] = test system: L 929; test: In vitro colorimetric cell death assay (MTT); format: cell-based; conditions: Mus musculus, L929, 48 h
Method: (§3) It's an in vitro colorimetric assay for assessing cell viability where the cells are grown in Two-dimensional surface.
(§4) An exemplary procedure for the assay follows. Cancer cells and normal cells were plated in a 96 well plate as per predetermined plating efficiency. The plate was incubated for 24 hours in a 5% CO2 atmosphere at 37 degrees Celsius, a range of concentrations of the compounds I-1, I-2 and I-3 as well as cisplatin (known chemotherapeutic agents) were added to the separate wells, the plate was incubated further for 48 hours in a 5% CO2 atmosphere, the plate was centrifuged twice at 3000 rpm for 3 minutes, the supernatant fluid was discarded, 100 uL of 0.5 mg/mL MTT solution was added and the plate was incubated for 4 hours in a 5% CO2 atmosphere at 37 degrees Celsius. The plate was then centrifuged twice at 3000 rpm for 3 minutes, supernatant, was aspirated very carefully, 200 uL DMSO was added to each well to solubilize MTT crystals and mixed well by shaking the plate, the plate was incubated for 10 minutes in a 5% CO2 atmosphere at 37 degrees Celsius, the plate placed on the shaker of an ELISA plate reader and the absorbance at 570 nm was measured, then the percentage of viable cells remaining was calculated by first subtracting the background absorbance then comparing to the absorbance of a non-drug-treated cell sample, and the results were plotted on a graph to determine the IC50 for the compounds and cisplatin.

[6] = test system: MCF10A (normal breast cell line); test: In vitro colorimetric cell death assay (MTT); format: cell-based; conditions: 48 hours
Method: as §3, §4

[7] = test system: DU145; test: In vitro colorimetric cell death assay (MTT); format: cell-based; conditions: Homo sapiens
Method: as §3, §4

[8] = test system: cancer cell lines; test: In vitro colorimetric cell death assay (MTT), overall statement; format: cell-based
Method: as §3, §4

[9] = test system: breast cancer cells MDA MB 231; test: In vitro 3D primary sphere forming stem cell assay; format: cell-based
Method: (§5) This assay measures the ability of cancer stem cells to form spheres in a serum free media where the spheres are in a suspended form. Through this assay we evaluated the potency of the compounds of the invention to kill cancer stem cells in comparison with the known chemotherapeutic agent Cisplatin.
(§6) An exemplary procedure for the assay follows. Cells were grown in three dimensions on a plastic substrate, harvested in suspension in serum-free media, then the cells in the sample were trypsinized and a single cell suspension was formed by passing through a cell strainer. The cells were diluted according to the predetermined plating efficiency for the cell line being studied by suspending the cells in stem cell culture medium. 100 uL of this suspension was added into each well of a 96 well suspension plate, and the plate was incubated at 37 degrees Celsius in 5% CO2 atmosphere for 24 hours, then 2 uL of appropriate concentrations of the compounds of the invention and cisplatin were added into each respective well along with 100 uL of stem cell culture medium, and the plates were incubated at 37 degrees Celsius under 5% CO2 atmosphere for 72 hours. 2.5 uL of the compounds of the invention and cisplatin were added to each respective well along with 50 uL of stem cell culture medium and then the plates were incubated at 37 degrees Celsius under 5% CO2 atmosphere for 72 hours. 3 uL of appropriate concentrations of the compounds of the invention and cisplatin were added to each respective well along with 50 uL of stem cell culture medium and then the plates were incubated at 37 degrees Celsius under 5% CO2 atmosphere for 72 hours, then the spheres formed were observed under a microscope then counted and scored by size.
(§7) Results of the in vitro 3D sphere forming stem cell assay are set forth in a tabular manner. The number in each box is the total number of spheres formed in the presence of either cisplatin or compound I-2 or compound I-3 at each drug concentration. GC refers to a growth control performed in the absence of drug or solvent (DMSO). GCD refers to a growth control performed in the absence of drug, but in the presence of DMSO.

[10] = test system: breast cancer cells MCF-7; test: In vitro 3D primary sphere forming stem cell assay; format: cell-based
Method: as §5, §6, §7

[11] = test system: T47D; test: In vitro soft agar colony forming growth assay; format: cell-based; conditions: Homo sapiens, 168 h, one week
Method: as §1, §2

[12] = test system: PC3; test: In vitro soft agar colony forming growth assay; format: cell-based; conditions: Homo sapiens, PC-3, 168 h, one week
Method: as §1, §2

[13] = test system: DU145; test: In vitro soft agar colony forming growth assay; format: cell-based; conditions: Homo sapiens, DU-145, 168 h, one week
Method: as §1, §2

[14] = test system: T47D; test: In vitro colorimetric cell death assay (MTT); format: cell-based; conditions: Homo sapiens, 48 hours
Method: as §3, §4

[15] = test system: LNCaP; test: In vitro colorimetric cell death assay (MTT); format: cell-based; conditions: Homo sapiens, 48 hours
Method: as §3, §4

[16] = test system: MDAMB231; test: In vitro colorimetric cell death assay (MTT); format: cell-based; conditions: Homo sapiens, MDA-MB-231, 48 hours
Method: as §3, §4

[17] = test system: PC3; test: In vitro colorimetric cell death assay (MTT); format: cell-based; conditions: Homo sapiens, PC-3, 48 hours
Method: as §3, §4

COc1cc2c(OC3OCC(OC)C(OC)C3OC(C)=O)c3c(c(-c4ccc5c(c4)OCO5)c2cc1OC)C(=O)OC3 (stereo not drawn) [I-1]
Number of mice surviving after injection ([1]; 2.5 mg/kg single dose i.p., day 0): 6/6
Number of mice surviving after injection ([1]; 2.5 mg/kg single dose i.p., day 1): 6/6
Number of mice surviving after injection ([1]; 2.5 mg/kg single dose i.p., day 2): 6/6
Number of mice surviving after injection ([1]; 2.5 mg/kg single dose i.p., day 3): 6/6
Number of mice surviving after injection ([1]; 2.5 mg/kg single dose i.p., day 4): 6/6
Number of mice surviving after injection ([1]; 5 mg/kg single dose i.p., day 0): 6/6
Number of mice surviving after injection ([1]; 5 mg/kg single dose i.p., day 1): 6/6
Number of mice surviving after injection ([1]; 5 mg/kg single dose i.p., day 2): 6/6
Number of mice surviving after injection ([1]; 5 mg/kg single dose i.p., day 3): 6/6
Number of mice surviving after injection ([1]; 5 mg/kg single dose i.p., day 4): 6/6
Number of mice surviving after injection ([1]; 10 mg/kg single dose i.p., day 0): 6/6
Number of mice surviving after injection ([1]; 10 mg/kg single dose i.p., day 1): 4/6
Number of mice surviving after injection ([1]; 10 mg/kg single dose i.p., day 2): 4/6
Number of mice surviving after injection ([1]; 10 mg/kg single dose i.p., day 3): 4/6
Number of mice surviving after injection ([1]; 10 mg/kg single dose i.p., day 4): 4/6
Number of mice surviving after injection ([1]; 30 mg/kg single dose i.p., day 0): 4/6
Number of mice surviving after injection ([1]; 30 mg/kg single dose i.p., day 1): 4/6
Number of mice surviving after injection ([1]; 30 mg/kg single dose i.p., day 2): 0/6
Number of mice surviving after injection ([1]; 30 mg/kg single dose i.p., day 3): 0/6
Number of mice surviving after injection ([1]; 30 mg/kg single dose i.p., day 4): 0/6
MTD ([1]; single dose i.p., nude mice): 5-10 mg/kg body weight
dose that resulted in 100% survival of mice after 4 days ([1]; single dose i.p., nude mice): about 5 mg/kg
IC50 [2]: 3.63 µM
IC50 [3]: 5.88 µM
IC50 [4]: 5.12 µM
IC50 [5]: 1.23 µM
IC50 [6]: No activity
IC50 ([7]; DU-145, 48 h): 37.6 µM
anticancer activity in cancer cell lines as compared to cisplatin [8]: high anticancer activity

COc1cc2c(OC3OCC(O)C(O)C3O)c3c(c(-c4ccc5c(c4)OCO5)c2cc1OC)C(=O)OC3 (stereo not drawn) [I-3, 9-(1,3-benzodioxol-5-yl)-4-[(3,4,5-trihydroxytetrahydro-2H-pyran-2-yl)oxy]naphtho-6,7-dimethoxynaphtho[2,3-c]furan-1(3H)-one]
numbers of primary spheres formed, compared with cisplatin ([9]; MDA MB 231): significantly less
# of 3D Primary Spheres Formed of Cells MDA MB231 (±SD) ([9]; final conc. 0.125 μM): 54(±5)
# of 3D Primary Spheres Formed of Cells MDA MB231 (±SD) ([9]; final conc. 1.25 μM): 38(±5)
# of 3D Primary Spheres Formed of Cells MDA MB231 (±SD) ([9]; final conc. 12.5 μM): 31(±5)
# of 3D Primary Spheres Formed of Cells MDA MB231 (±SD) ([9]; final conc. 125 μM): 9(±2)
# of 3D Primary Spheres Formed of Cells MDA MB231 (±SD) ([9]; final conc. 1250 μM): 0(±0)
numbers of primary spheres formed, compared with cisplatin ([10]; MCF-7): significantly less
# of 3D Primary Spheres Formed of Cells MCF-7 (±SD) ([10]; final conc. 0.125 μM): 74(±10)
# of 3D Primary Spheres Formed of Cells MCF-7 (±SD) ([10]; final conc. 1.25 μM): 57(±5)
# of 3D Primary Spheres Formed of Cells MCF-7 (±SD) ([10]; final conc. 12.5 μM): 48(±10)
# of 3D Primary Spheres Formed of Cells MCF-7 (±SD) ([10]; final conc. 125 μM): 28(±6)
# of 3D Primary Spheres Formed of Cells MCF-7 (±SD) ([10]; final conc. 1250 μM): 0(±0)
IC50 [11]: 0.7 µM
IC50 ([3]; MDAMB231, soft agar, one week, read-out: IC 50): 0.55 µM
IC50 [12]: 0.85 µM
IC50 [13]: 0.661 µM
IC50 [14]: 21.1 µM
IC50 [15]: 3.16 µM
IC50 [16]: 10 µM
IC50 [17]: 13.5 µM
IC50 ([7]; DU-145, DU145, MTT, 48 hours, read-out: IC 50): 9.55 µM
anticancer activity in cancer cell lines as compared to cisplatin [8]: high anticancer activity
